Experimental findings from patent publication US20230357269A1 (LES LABORATOIRES SERVIER, priority 2020, published 2023) are described below.

Some results are limits rather than exact numbers.

human recombinant LRRK2 protein, sequence (Q5S007 whole entry): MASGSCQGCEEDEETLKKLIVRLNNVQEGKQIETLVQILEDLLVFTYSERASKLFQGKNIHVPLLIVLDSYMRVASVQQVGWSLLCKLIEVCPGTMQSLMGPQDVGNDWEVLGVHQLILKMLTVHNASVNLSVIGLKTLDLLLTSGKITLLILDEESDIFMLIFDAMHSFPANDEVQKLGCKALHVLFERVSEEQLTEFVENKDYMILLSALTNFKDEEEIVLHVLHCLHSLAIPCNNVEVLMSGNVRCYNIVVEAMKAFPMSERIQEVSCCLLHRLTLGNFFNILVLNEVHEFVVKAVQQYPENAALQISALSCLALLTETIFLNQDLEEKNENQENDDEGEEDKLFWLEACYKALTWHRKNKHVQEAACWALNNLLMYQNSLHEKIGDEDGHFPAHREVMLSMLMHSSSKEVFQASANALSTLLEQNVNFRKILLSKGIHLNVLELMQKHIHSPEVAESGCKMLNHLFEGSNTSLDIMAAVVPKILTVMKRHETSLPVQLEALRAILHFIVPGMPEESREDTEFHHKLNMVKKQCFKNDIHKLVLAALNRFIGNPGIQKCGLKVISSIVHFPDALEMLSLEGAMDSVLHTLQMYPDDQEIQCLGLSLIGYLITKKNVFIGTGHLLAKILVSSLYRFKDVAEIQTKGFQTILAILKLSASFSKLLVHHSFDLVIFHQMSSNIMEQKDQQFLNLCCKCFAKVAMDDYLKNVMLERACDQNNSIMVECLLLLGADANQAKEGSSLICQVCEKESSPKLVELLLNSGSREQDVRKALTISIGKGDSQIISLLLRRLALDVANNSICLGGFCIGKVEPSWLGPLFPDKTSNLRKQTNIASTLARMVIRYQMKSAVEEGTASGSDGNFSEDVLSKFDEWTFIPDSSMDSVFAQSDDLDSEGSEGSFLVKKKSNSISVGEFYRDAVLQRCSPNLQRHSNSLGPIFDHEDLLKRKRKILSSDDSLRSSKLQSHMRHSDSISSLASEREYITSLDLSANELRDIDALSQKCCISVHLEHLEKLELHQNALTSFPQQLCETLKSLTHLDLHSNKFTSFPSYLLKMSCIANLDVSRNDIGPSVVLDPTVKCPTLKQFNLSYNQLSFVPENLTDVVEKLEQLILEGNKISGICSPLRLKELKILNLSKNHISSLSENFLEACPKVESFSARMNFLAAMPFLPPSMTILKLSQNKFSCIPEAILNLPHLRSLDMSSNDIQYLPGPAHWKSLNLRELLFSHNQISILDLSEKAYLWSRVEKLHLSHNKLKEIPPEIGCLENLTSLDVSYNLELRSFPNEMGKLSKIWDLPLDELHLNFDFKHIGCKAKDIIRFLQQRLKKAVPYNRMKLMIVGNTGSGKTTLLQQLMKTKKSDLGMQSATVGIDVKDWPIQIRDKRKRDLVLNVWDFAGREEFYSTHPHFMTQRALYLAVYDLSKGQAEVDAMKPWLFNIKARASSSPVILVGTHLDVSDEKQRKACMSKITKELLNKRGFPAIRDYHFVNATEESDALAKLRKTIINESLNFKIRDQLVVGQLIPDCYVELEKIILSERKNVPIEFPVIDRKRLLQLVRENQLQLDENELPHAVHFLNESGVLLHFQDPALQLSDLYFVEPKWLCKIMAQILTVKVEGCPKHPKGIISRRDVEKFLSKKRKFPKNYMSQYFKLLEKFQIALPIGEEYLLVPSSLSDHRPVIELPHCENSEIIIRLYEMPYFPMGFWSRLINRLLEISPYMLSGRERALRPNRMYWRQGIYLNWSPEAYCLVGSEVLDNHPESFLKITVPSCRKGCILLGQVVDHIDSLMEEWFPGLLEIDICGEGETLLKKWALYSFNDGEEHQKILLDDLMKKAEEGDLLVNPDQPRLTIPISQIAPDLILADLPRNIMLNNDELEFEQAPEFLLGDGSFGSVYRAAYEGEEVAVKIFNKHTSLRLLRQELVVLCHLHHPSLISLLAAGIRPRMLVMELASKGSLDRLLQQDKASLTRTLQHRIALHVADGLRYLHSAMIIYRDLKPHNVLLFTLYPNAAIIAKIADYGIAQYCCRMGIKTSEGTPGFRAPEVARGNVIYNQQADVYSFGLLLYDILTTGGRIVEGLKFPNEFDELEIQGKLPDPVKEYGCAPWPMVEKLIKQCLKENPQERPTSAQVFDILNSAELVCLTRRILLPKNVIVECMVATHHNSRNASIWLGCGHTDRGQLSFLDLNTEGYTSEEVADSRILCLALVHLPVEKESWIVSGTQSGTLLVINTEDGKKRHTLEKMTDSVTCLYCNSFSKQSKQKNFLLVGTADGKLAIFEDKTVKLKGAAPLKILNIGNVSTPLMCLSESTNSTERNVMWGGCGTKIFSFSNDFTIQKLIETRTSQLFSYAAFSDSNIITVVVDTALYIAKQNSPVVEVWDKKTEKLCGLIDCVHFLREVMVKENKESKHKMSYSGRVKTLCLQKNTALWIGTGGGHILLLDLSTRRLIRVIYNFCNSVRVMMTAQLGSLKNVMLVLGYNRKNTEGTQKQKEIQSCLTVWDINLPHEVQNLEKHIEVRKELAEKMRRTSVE

This assay has as its target human recombinant LRRK2 protein (Homo sapiens (Human), UniProt Q5S007). The assay is described as follows: LRRK2 Kinase Activity Assay (ADP-Glo). Format: biochemical. As to conditions: LRRK2 wt; LRRKtide peptide and ATP substrates; 1h-incubation at 37° C. The essentials:
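Recombinant human LRRK2 acted on LRRKtide peptide and ATP for 1 h at 37 °C. ADP formed was detected by ADP-Glo luminescence (ATP depletion, then ADP-to-ATP conversion and luciferase). IC50s came from curve fits over 10 concentrations (N=2).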
Regarding `CC1OC(=O)NCCCOc2ccc3[nH]nc(c3c2)-c2cccc1c2` (centres unmarked) [Example 22, 7-methyl-8,14-dioxa-10,19,20-triazatetracyclo[13.5.2.1^2,6.0^18,21]tricosa-1(20), 2,4,6(23),15,17,21-heptaen-9-one], the IC50 is less than 0.01 µM. Turning to `O=C1NCCCOc2ccc3[nH]nc(c3c2)-c2cc(no2)CCCO1` [Example 123, 3,9,15-trioxa-4,11,20,21-tetraazatetracyclo[14.5.2.1^2,5.0^19,22]tetracosa-1(21),2(24),4,16,18,22-hexaen-10-one], the half-maximal inhibitory concentration (IC50) is less than 0.01 µM.

For the molecule `O=C1NCCCOc2ccc3[nH]nc(c3c2)-c2cc(cc(N3CCOCC3)c2)CO1` [Example 16, 4-(morpholin-4-yl)-8,14-dioxa-10,19,20-triazatetracyclo[13.5.2.1^2,6.0^18,21]tricosa-1(20),2,4,6(23),15,17,21-heptaen-9-one], the IC50 is less than 0.01 µM. As to `COCCC1CCN(c2cc3cc(c2)-c2n[nH]c4ccc(cc24)OCCCNC(=O)OC3)CC1` [Example 23, 4-[4-(2-methoxyethyl)piperidin-1-yl]-8,14-dioxa-10,19,20-triazatetracyclo[13.5.2.1^2,6.0^18,21]tricosa-1(20),2,4,6(23),15,17,21-heptaen-9-one], the concentration for half-maximal inhibition (IC50) is less than 0.01 µM. On to `O=C1NCCCCc2ccc3[nH]nc(c3c2)-c2cccc(c2)CO1` [Example 142, 8-oxa-10,19,20-triazatetracyclo[13.5.2.1^2,6.0^18,21]tricosa-1(20),2(23),3,5, 15(22),16,18(21)-heptaen-9-one], for which the half-inhibitory concentration (IC50) is less than 0.01 µM. For `O=C1NCCCOc2ccc3[nH]nc(c3c2)-c2cc(cc(N3CCCCC3)c2)CO1` [Example 36, 4-(piperidin-1-yl)-8,14-dioxa-10,19,20-triazatetracyclo[13.5.2.1^2,6.0^18,21]tricosa-1(20),2,4,6(23),15,17,21-heptaen-9-one], the IC50 was less than 0.01 µM. With `CC1Cn2cc(cn2)-c2n[nH]c3ccc(cc23)OCCCNC(=O)O1` (centres unmarked) [Example 94, 7-methyl-8,14-dioxa-4,5,10,19,20-pentaazatetracyclo[13.5.2.1^2,5.0^18,21]tricosa-1(20),2(23),3,15(22),16,18(21)-hexaen-9-one], the IC50 is less than 0.01 µM. As for `C[C@@H]1CCNC(=O)OCc2cccc(c2)-c2n[nH]c3ccc(cc23)O1` [Example 63, (13R)-13-methyl-8,14-dioxa-10,19,20-triazatetracyclo[13.5.2.1^2,6.0^18,21]tricosa-1(20),2(23),3,5,15(22),16,18(21)-heptaen-9-one], the IC50 is less than 0.01 µM.

Turning to `C[C@@H]1CCNC(=O)OCc2cccc(c2)-c2n[nH]c3ncc(cc23)O1` [Example 165, (13R)-13-methyl-8,14-dioxa-10,17,19,20-tetraazatetracyclo[13.5.2.1^2,6.0^18,21]tricosa-1(20),2(23),3,5,15(22),16,18(21)-heptaen-9-one], the IC50 is less than 0.01 µM. For `C[C@@H]1CCNC(=O)OCc2cccc(c2)-c2n[nH]c3c(F)cc(cc23)O1` [Example 153, (13R)-17-fluoro-13-methyl-8,14-dioxa-10,19,20-triazatetracyclo[13.5.2. 1^2,6.0^18,21]tricosa-1(20),2(23),3,5,15(22),16,18(21)-heptaen-9-one], the half-maximal inhibitory concentration (IC50) was less than 0.01 µM. The figure for `COc1ccc2cc1COC(=O)NCCCOc1ccc3[nH]nc-2c3c1` [Example 19, 5-methoxy-8,14-dioxa-10,19,20-triazatetracyclo[13.5.2.1^2,6.0^18,21]tricosa-1(20),2,4,6(23),15,17,21-heptaen-9-one] is less than 0.01 µM; for `Cn1nc2cc1CCOC(=O)NCCCOc1ccc3[nH]nc-2c3c1` [Example 145, 4-methyl-8,14-dioxa-3,4,10,19,20-pentaazatetracyclo[13.5.2.1^2,5.0^18,21]tricosa-1(20),2,5(23),15(22),16,18(21)-hexaen-9-one] it is 0.1 to 1 µM; for `C[C@@H]1CCNC(=O)O[C@H](C)c2cc(F)cc(c2)-c2n[nH]c3ccc(cc23)O1` [Example 106, (7R,13R)-4-fluoro-7,13-dimethyl-8,14-dioxa-10,19,20-triazatetracyclo[13.5.2.1^2,6.0^18,21]tricosa-1(20),2,4,6(23),15,17,21-heptaen-9-one] it is less than 0.01 µM. `C[C@@H]1CCNC(=O)OCc2cc(ccc2C#N)-c2n[nH]c3ccc(cc23)O1` [Example 128, (13R)-13-methyl-9-oxo-8,14-dioxa-10,19,20-triazatetracyclo[13.5.2.1^2,6. 0^18,21]tricosa-1(20),2,4,6(23),15,17,21-heptaene-5-carbonitrile]: the half-maximal inhibitory concentration (IC50) was less than 0.01 µM.

For `CC(C)N1CCCOc2ccc3[nH]nc(c3c2)-c2cncc(c2)COC1=O` [Example 6, 10-(propan-2-yl)-8,14-dioxa-4,10,19,20-tetraazatetracyclo[13.5.2.1^2,6.0^18,21]tricosa-1(20),2,4,6(23),15,17,21-heptaen-9-one], the concentration for half-maximal inhibition (IC50) fell in the range of 0.01 to 0.1 µM. The figure for `Cc1cc2[nH]nc3c2cc1O[C@H](C)CCNC(=O)OCc1cccc-3c1` [Example 139, (13R)-13,16-dimethyl-8,14-dioxa-10,19,20-triazatetracyclo[13.5.2.1^2,6.0^18,21]tricosa-1(20),2,4,6(23),15,17,21-heptaen-9-one] is less than 0.01 µM; for `C[C@@H]1CCNC(=O)O[C@H](C)c2cccc(n2)-c2n[nH]c3ccc(cc23)O1` [Example 136, (7R,13R)-7,13-dimethyl-8,14-dioxa-10,19,20,23-tetraazatetracyclo[13.5.2.1^2,6.0^18,21]tricosa-1(20),2,4,6(23),15,17,21-heptaen-9-one] it is less than 0.01 µM; for `CC1OC(=O)NCCCOc2ccc3[nH]nc(c3c2)-c2cc(F)cc1c2` (centres unmarked) [Example 56, 4-fluoro-7-methyl-8,14-dioxa-10,19,20-triazatetracyclo[13.5.2.1^2,6.0^18,21]tricosa-1(20),2,4,6(23),15,17,21-heptaen-9-one] it is less than 0.01 µM. With `O=C1NCCCNc2ccc3[nH]nc(c3c2)-c2cccc(c2)CO1` [Example 141, 8-oxa-10,14,19,20-tetraazatetracyclo[13.5.2.1^2,6.0^18,21]tricosa-1(20),2(23), 3,5,15(22),16,18(21)-heptaen-9-one], the IC50 was in the range of 0.1 to 1 µM. The figure for `C[C@H]1CCNC(=O)OCc2cccc(c2)-c2n[nH]c3ccc(cc23)O1` [Example 62, (13S)-13-methyl-8,14-dioxa-10,19,20-triazatetracyclo[13.5.2.1^2,6.0^18,21]tricosa-1(20),2(23),3,5,15(22),16,18(21)-heptaen-9-one] is less than 0.01 µM. Consider `C[C@@H]1CCNC(=O)O[C@@H](C)c2cncc(n2)-c2n[nH]c3ccc(cc23)O1` [Example 154, (7S,13R)-7,13-dimethyl-8,14-dioxa-4,10,19,20,23-pentaazatetracyclo[13.5.2.1^2,6.0^18,21]tricosa-1(20),2(23),3,5,15(22),16,18(21)-heptaen-9-one], for which the 50% inhibitory concentration (IC50) lay within 0.01 to 0.1 µM. Regarding `O=C1NCCCOc2ccc3[nH]nc(c3c2)-c2cc(cc(CN3CCCCC3)c2)CO1` [Example 43], the IC50 was in the range of 0.01 to 0.1 µM. In the case of `CC1CCCN(c2cc3cc(c2)-c2n[nH]c4ccc(cc24)OCCCNC(=O)OC3)C1` (centres unmarked) [Example 58, 4-(3-methylpiperidin-1-yl)-8,14-dioxa-10,19,20-triazatetracyclo[13.5.2.1^2,6.0^18,21]tricosa-1(20),2,4,6(23),15,17,21-heptaen-9-one], the IC50 was less than 0.01 µM.
